Laboratory results from patent publication US5696153A, “Therapeutic regimen for treating patients” (priority 1996, dated 1997).
Read-outs that look alike come from different tables or passages of the source.

Columns and labels:
[1] = system: SK-N-FI neuroblastoma cells; assay: cells; conditions: for cytotoxicity at 0.1 µg/mL / cytotoxicity at 1 µg/mL: 120 h
Description: (§1) Cell lines tested included: Glioblastoma cell lines VA-MG-SL and U-373-MG, neuroblastoma cell lines SK-N-AS, SK-N-FI and VA-N-BR, and two primitive neuroectodermal tumor cell lines SK-N-LO and SK-PN-DW at different concentrations. All cell lines were personally established from patients and cultured except U-373-MG (obtained from the American Type Culture Collection, Rockville, […]., USA). The cell lines SK-N-AS, SK-N-FI, SK-N-LO and SK-PN-DW have been reported in several publications and are believed to be representative of their respective lineages.
(§2) Stock cells in 25 cm^2 flasks were incubated in Dubelco's modified Eagle's medium (Sigma, St. Louis, Mo.) containing 10% fetal bovine serum at 37° C. and 5% CO2 in air for 5 days. Media was renewed on the sixth day and on the seventh day the cells were detached into a single cell suspension with trypsin EDTA, counted and aliquots plated at 3000 to 5000 cells in 0.1 ml fresh media in separate wells of a 96-well microliter plate (Becton-Dickinson Labware, Lincoln Park, N.J.). […] Six replicate wells were used in every experiment as controls and for each test concentration. Each experiment was repeated three separate times. Viability of the cell lines 5 days after exposure to drugs was determined by the MTT assay following published procedures.
(§3) Cytocidal activity was defined when the number of cells or the MTT surrogate optical density value was less than the initial inoculum. This is usually the case when ≥80% toxicity is recorded under these in vitro conditions.
(§4) Differences were considered to be statistically significant for a p-value of 0.05 or less.

[2] = system: VA-N-BR neuroblastoma cells; assay: cells; conditions: Neuroblastoma cell; for cytotoxicity at 0.1 µg/mL / cytotoxicity at 1 µg/mL: Homo sapiens, 120 h
Description: as §1, §2, §3, §4

[3] = system: VA-MG-SL glioblastoma cells; assay: cells; conditions: for cytotoxicity at 0.1 µg/mL / cytotoxicity at 1 µg/mL: Homo sapiens, 120 h
Description: as §1, §2, §3, §4

[4] = system: U-373-MG glioblastoma cells; assay: cells; conditions: Homo sapiens, U373 MG; for cytotoxicity at 0.1 µg/mL / cytotoxicity at 1 µg/mL: 120 h
Description: as §1, §2, §3, §4

[5] = system: SK-N-LO primitive neuroectodermal tumor cells; assay: MTT cytotoxicity, SK-N-LO; conditions: for cytotoxicity at 0.01 µg/mL / cytotoxicity at 0.1 µg/mL / cytotoxicity at 1 µg/mL: Homo sapiens, 120 h
Description: as §1, §2, §3, §4

[6] = system: ovarian and breast cancers; conditions: background statement; cited from earlier work
[7] = system: SK-N-AS neuroblastoma cells; assay: MTT cytotoxicity, SK-N-AS; conditions: for cytotoxicity at 0.01 µg/mL / cytotoxicity at 0.1 µg/mL / cytotoxicity at 1 µg/mL: Homo sapiens, 120 h
Description: as §1, §2, §3, §4

SK-N-AS cells [8] = assay: Effects of spacing exposure to taxol on toxicity in SK-N-AS cells
Description: as §2

[9] = 40 mg/kg single IP
Description: Five nude mice were maintained in each cage with a fiberglass bonnet in a clean isolation room. All cages and food were sterilized prior to use. Female nude mice were inoculated subcutaneously with 3×10^6 human neuroblastoma (SK-N-AS) tumor cells. Between 8-16 days, tumor growth was evident and measured.
Following sacrifice by cervical dislocation, tumor and normal tissues were immediately removed, sonicated, diluted in buffer (PBS containing 0.25% BSA, 0.05%, Tween 20, Methanol 20%, and Sodium Azide 2%). […] Tissue protein was determined using the BioRad kit (BioRad, 3300 Regatta Boulevard, Richmond, Calif. 94804).

various cancers = assay: Human tumor responses, Q4D schedule; format: in vivo, human patients
Description: From the results obtained from the in vitro and the animal studies, responses of various human subjects to the Q4d×3 (21 days×3) protocol at dosages levels of about 60 mg/m^2 were evaluated. It should be understood that these patients were deemed "salvage" cases almost all of whom had not responded to conventional treatment. All were otherwise thought to be beyond approved therapeutic regimens. Thus, the results and evaluation are anecdotal in nature and are not part of a controlled and statistical valid clinical trial.
Characteristics of the group of twenty were: male (5); female (15); median age 44 (17-81); ECOG-PS 1 (0-3). All were previously treated with chemotherapy and radiation for cancers of the breast (5), ovarian (2), brain (3), prostate (1), head and neck (4), bone (2), leiomyosarcoma (2), and melanoma (1).

[10] = cited from earlier work
[11] = Study B: taxol tissue levels after three IP injections at 4 day intervals; format: in vivo, nude mice; conditions: seven days after third injection
SK-N-AS cells [12] = assay: Sensitivity to a second dose of taxol at different times after a first dose (FIG. 1); format: cell-based, human
[13] = read-out: concentration at which cell line was affected
[14] = Homo sapiens, SK-N-AS, 120 h, read-out: Survival (%)

With `CC(=O)O[C@H]1C(=O)[C@@]2(C)[C@H]([C@H](OC(=O)c3ccccc3)[C@]3(O)C[C@H](OC(=O)[C@H](O)[C@@H](NC(=O)c4ccccc4)c4ccccc4)C(C)=C1C3(C)C)[C@]1(OC(C)=O)CO[C@@H]1C[C@@H]2O` [taxol] the “resilience of cell line to taxol (least/most resilient)” value ([1]; 0.01-1.0 μg/ml) was “the most”, the cytotoxicity at 0.1 µg/mL ([1]; Homo sapiens, read-out: Taxol toxicity, SK-N-FI, 0.1 μg/ml x 1 h, 5 days after exposure) was 0% and the cytotoxicity at 0.1 µg/mL ([1]; Homo sapiens, read-out: Taxol toxicity, SK-N-FI, 0.1 μg/ml x 4 h, 5 days after exposure) was 0%. It also gave a cytotoxicity at 0.1 µg/mL ([1]; Homo sapiens, read-out: Taxol toxicity, SK-N-FI, 0.1 μg/ml x 24 h, 5 days after exposure, p < 0.05 vs 1 h) of 14%, a cytotoxicity at 1 µg/mL ([1]; Homo sapiens, read-out: Taxol toxicity, SK-N-FI, 1.0 μg/ml x 1 h, 5 days after exposure) of 0% and a cytotoxicity at 1 µg/mL ([1]; Homo sapiens, read-out: Taxol toxicity, SK-N-FI, 1.0 μg/ml x 4 h, 5 days after exposure) of 58%. The cytotoxicity at 1 µg/mL ([1]; Homo sapiens, read-out: Taxol toxicity, SK-N-FI, 1.0 μg/ml x 24 h, 5 days after exposure, p < 0.05 vs 1 h) was 76%, the minimal effective concentration ([1]; Homo sapiens, read-out: concentration at which cell line was affected) was at least 0.1 µg/mL and the cytotoxicity at 0.1 µg/mL ([2]; read-out: Taxol toxicity, VA-N-BR, 0.1 μg/ml x 1 h, 5 days after exposure) was 61%. The cytotoxicity at 0.1 µg/mL ([2]; read-out: Taxol toxicity, VA-N-BR, 0.1 μg/ml x 4 h, 5 days after exposure) was 66%, the cytotoxicity at 0.1 µg/mL ([2]; read-out: Taxol toxicity, VA-N-BR, 0.1 μg/ml x 24 h, 5 days after exposure) was 68% and the cytotoxicity at 1 µg/mL ([2]; read-out: Taxol toxicity, VA-N-BR, 1.0 μg/ml x 1 h, 5 days after exposure) was 87%. It also gave a cytotoxicity at 1 µg/mL ([2]; read-out: Taxol toxicity, VA-N-BR, 1.0 μg/ml x 4 h, 5 days after exposure) of 84%, a cytotoxicity at 1 µg/mL ([2]; read-out: Taxol toxicity, VA-N-BR, 1.0 μg/ml x 24 h, 5 days after exposure) of 83% and a minimal effective concentration [2, 13] of at least 0.1 µg/mL. It also gave a cytotoxicity at 0.1 µg/mL ([3]; read-out: Taxol toxicity, VA-MG-SL, 0.1 μg/ml x 1 h, 5 days after exposure) of 58%, a cytotoxicity at 0.1 µg/mL ([3]; read-out: Taxol toxicity, VA-MG-SL, 0.1 μg/ml x 4 h, 5 days after exposure) of 56% and a cytotoxicity at 0.1 µg/mL ([3]; read-out: Taxol toxicity, VA-MG-SL, 0.1 μg/ml x 24 h, 5 days after exposure) of 58%. For the same compound, the cytotoxicity at 1 µg/mL ([3]; read-out: Taxol toxicity, VA-MG-SL, 1.0 μg/ml x 1 h, 5 days after exposure) was 87%, the cytotoxicity at 1 µg/mL ([3]; read-out: Taxol toxicity, VA-MG-SL, 1.0 μg/ml x 4 h, 5 days after exposure) was 90% and the cytotoxicity at 1 µg/mL ([3]; read-out: Taxol toxicity, VA-MG-SL, 1.0 μg/ml x 24 h, 5 days after exposure) was 86%. It also gave a minimal effective concentration [3, 13] of at least 0.1 µg/mL, a cytotoxicity at 0.1 µg/mL ([4]; read-out: Taxol toxicity, U-373-MG, 0.1 μg/ml x 1 h, 5 days after exposure) of 46% and a cytotoxicity at 0.1 µg/mL ([4]; read-out: Taxol toxicity, U-373-MG, 0.1 μg/ml x 4 h, 5 days after exposure) of 56%. The cytotoxicity at 0.1 µg/mL ([4]; read-out: Taxol toxicity, U-373-MG, 0.1 μg/ml x 24 h, 5 days after exposure) was 57%, the cytotoxicity at 1 µg/mL ([4]; read-out: Taxol toxicity, U-373-MG, 1.0 μg/ml x 1 h, 5 days after exposure) was 74% and the cytotoxicity at 1 µg/mL ([4]; read-out: Taxol toxicity, U-373-MG, 1.0 μg/ml x 4 h, 5 days after exposure) was 79%. For the same compound, the cytotoxicity at 1 µg/mL ([4]; read-out: Taxol toxicity, U-373-MG, 1.0 μg/ml x 24 h, 5 days after exposure) was 79%, the minimal effective concentration [4, 13] was at least 0.1 µg/mL and the cytotoxicity at 0.01 µg/mL ([5]; read-out: Taxol toxicity, SK-N-LO, 0.01 μg/ml x 1 h, 5 days after exposure) was 0%. It also gave a cytotoxicity at 0.01 µg/mL ([5]; read-out: Taxol toxicity, SK-N-LO, 0.01 μg/ml x 4 h, 5 days after exposure) of 0%, a cytotoxicity at 0.01 µg/mL ([5]; read-out: Taxol toxicity, SK-N-LO, 0.01 μg/ml x 24 h, 5 days after exposure, p < 0.05 vs 1 h) of 17% and a cytotoxicity at 0.1 µg/mL ([5]; read-out: Taxol toxicity, SK-N-LO, 0.1 μg/ml x 1 h, 5 days after exposure) of 43%. The cytotoxicity at 0.1 µg/mL ([5]; read-out: Taxol toxicity, SK-N-LO, 0.1 μg/ml x 4 h, 5 days after exposure) was 56%, the cytotoxicity at 0.1 µg/mL ([5]; read-out: Taxol toxicity, SK-N-LO, 0.1 μg/ml x 24 h, 5 days after exposure) was 47% and the cytotoxicity at 1 µg/mL ([5]; read-out: Taxol toxicity, SK-N-LO, 1.0 μg/ml x 1 h, 5 days after exposure) was 54%. The cytotoxicity at 1 µg/mL ([5]; read-out: Taxol toxicity, SK-N-LO, 1.0 μg/ml x 4 h, 5 days after exposure) was 58%, the cytotoxicity at 1 µg/mL ([5]; read-out: Taxol toxicity, SK-N-LO, 1.0 μg/ml x 24 h, 5 days after exposure) was 57% and the “cytotoxicity compared with a 1 hour exposure” value ([5]; SK-N-LO, 0.01 μg/ml, 24 hour) was “enhanced cytotoxicity”. For the same compound, the toxicity in words ([5]; SK-N-LO, 0.01 μg/ml, 24 hour exposure) was “toxic”, the “antitumor activity in words” value [6] was “among the most active single agent for ovarian and breast cancers” and the “cytotoxicity compared with a 1 hour exposure” value ([7]; 0.01 μg/ml, 24 hour) was “enhanced cytotoxicity”. The toxicity in words ([7]; 0.01 μg/ml, ≥1 hour exposure) was “toxic”, the “resilience of cell line to taxol” value ([7]; 0.01-1.0 μg/ml) was “least resilient of the cell lines” and the cytotoxicity at 0.01 µg/mL ([7]; read-out: Taxol toxicity, SK-N-AS, 0.01 μg/ml x 1 h, 5 days after exposure) was 15%. It also gave a cytotoxicity at 0.01 µg/mL ([7]; read-out: Taxol toxicity, SK-N-AS, 0.01 μg/ml x 4 h, 5 days after exposure) of 25%, a cytotoxicity at 0.01 µg/mL ([7]; read-out: Taxol toxicity, SK-N-AS, 0.01 μg/ml x 24 h, 5 days after exposure, p < 0.05 vs 1 h) of 50% and a cytotoxicity at 0.1 µg/mL ([7]; read-out: Taxol toxicity, SK-N-AS, 0.1 μg/ml x 1 h, 5 days after exposure) of 65%. The cytotoxicity at 0.1 µg/mL ([7]; read-out: Taxol toxicity, SK-N-AS, 0.1 μg/ml x 4 h, 5 days after exposure) was 67%, the cytotoxicity at 0.1 µg/mL ([7]; read-out: Taxol toxicity, SK-N-AS, 0.1 μg/ml x 24 h, 5 days after exposure, p < 0.05 vs 1 h) was 81% and the cytotoxicity at 1 µg/mL ([7]; read-out: Taxol toxicity, SK-N-AS, 1.0 μg/ml x 1 h, 5 days after exposure) was 87%. It also gave a cytotoxicity at 1 µg/mL ([7]; read-out: Taxol toxicity, SK-N-AS, 1.0 μg/ml x 4 h, 5 days after exposure) of 82%, a cytotoxicity at 1 µg/mL ([7]; read-out: Taxol toxicity, SK-N-AS, 1.0 μg/ml x 24 h, 5 days after exposure) of 89% and a viability at 0.3 µg/mL (SK-N-AS cells [8]; [14]) of 61%. For the same compound, the viability at 0.6 µg/mL (SK-N-AS cells [8]; [14]) was 24%, the “cytotoxic effects of single vs split exposure” value (SK-N-AS cells [8]; single exposure 0.6 μg/ml/h) was “greater than when taxol was scheduled as 0.3 μg/ml given once and once again after 30 minutes” and the Tumor size ([9]; day 1) was 378 mm^2. The Tumor size ([9]; day 2) was 480 mm^2, the Tumor size ([9]; day 3) was 208 mm^2 and the Tumor size ([9]; day 4) was 80 mm^2. The Tumor size ([9]; day 5) was 252 mm^2, the Tumor size ([9]; day 6) was 154 mm^2 and the “antitumor activity in words” value (various cancers; Q4D schedule, advanced disease patients with varied histologies) was “has antitumor activity in advanced disease patients with varied histologies”. The “effectiveness vs Q21 day schedule” value (various cancers; Q4D, previously untreated patients or in combination/sequence, interpretation) was “equal to, or more effective than, the Q21 day schedule”, the partial response (various cancers; all) was “four” and the partial response (various cancers; brain) was 1 instances. For the same compound, the complete response (various cancers; brain tumor) was “one”, the partial response (various cancers; breast) was 2 instances and the partial response (various cancers; head and neck) was 1 instances. For the same compound, the effectiveness in words (various cancers; salvage patients, limited tests) was “demonstrated effectiveness”, the maximum tolerated dose ([10]; Brown et al, six-hour infusion every twenty-one days, no premedication) was 275 mg/m^2 and the “incidence of hypersensitivity reactions” value ([10]; Brown et al) was “dependent upon the schedule over which the taxol was administered”. For the same compound, the hypersensitivity reactions ([10]; Kris et al, three hour infusion, 15-200 mg/m^2) was “severity and unpredictability of hypersensitivity reactions”, the “taxol in the colon” value [11] was “Substantial amounts” and the “taxol in tumor and organs” value [11] was “detectable in tumor and organs”. For the same compound, the “time to revertant taxol susceptibility” value (SK-N-AS cells [12]; after initial exposure, concluded) was “four” and the “sensitivity to second dose of taxol” value (SK-N-AS cells [12]; second dose 24 to 120 hours after first, two experiments) was “rebounded at the fourth day and continued to the fifth day to the original sensitivity levels”.
